These results are taken from US20090048233A1, “Enhancing the Tolerability of a Seratonin Antagonist and a NSRI, a SNRI or a RIMA by Using Them in Combination” (CYPRESS BIOSCIENCES, INC., priority 2007, published 2009).

Data set [1] has as its system normal, health subjects. Put plainly: Example 4 tolerability study, mirtazapine and milnacipran. Conditions: 6 weeks, 15 mg mirtazapine or 50 mg milnacipran. The protocol:
(§1) The subjects receive 2 capsules per day, one in the morning and one at bedtime. […] All medications are administered in an over-encapsulated format that ensures blinding of study participants, staff and investigators. All subjects are scheduled to receive a total of 6 weeks of therapy, and are required to return to the clinics after 1, 2, 4 and 6 weeks of therapy. Patients are required to complete paper self-assessments, electronic diary assessments, computer based cognitive testing, as well as vital signs and weight assessments at the clinic visits.

Data set [2] relates to reuptake of noradrenaline and serotonin. Conditions: in vivo; cited from earlier work.
Data set [3] concerns normal, health subjects. Put plainly: Example 1 tolerability study, mirtazapine and milnacipran or duloxetine. To be noted: 6 weeks, 15 mg mirtazapine or 100 mg milnacipran or duloxetine. The protocol:
as §1

Data set [4] relates to normal, health subjects. Put plainly: Example 1A tolerability study, mirtazapine and 1S,2R-enriched milnacipran. To be noted: 6 weeks, milnacipran with 1S,2R:1R,2S ratio about 55:45 to 90:10. The protocol: as §1
For data set [5] the following is noted: controlled studies; cited from earlier work.
Data set [6] relates to normal, health subjects. Put plainly: Example 5 tolerability study, mirtazapine and duloxetine. Type of data set: in vivo, human. Conditions: 6 weeks, 15 mg mirtazapine or 30 mg duloxetine.
Data set [7] deals with chronic tension type headache. To be noted: controlled trial; cited from earlier work.
Data set [8] deals with cancer patients with pain. To be noted: open trial in cancer pain, 15 and 30 mg; cited from earlier work.
The test system of data set [9] is patients with fibromyalgia. Conditions: open study; cited from earlier work.

As for `CCN(CC)C(=O)[C@@]1(c2ccccc2)C[C@H]1CN` (racemic) [milnacipran, cis-(±)-2-(aminomethyl)-N,N-diethyl-1-phenylcyclopropanecarboxamide], the “side effects of the drug alone” value in the data set with normal, health subjects [1] was “causes insomnia, nausea/vomiting, and weight loss”; with normal, health subjects [3], “causes insomnia, nausea/vomiting, and weight loss”; with normal, health subjects [4], “causes insomnia, nausea/vomiting, and weight loss”. Moreover, the “potency for inhibiting the reuptake of both noradrenaline and serotonin” value in [2] is listed as “nearly equal potency”.
As for `CN(C)CCC=C1c2ccccc2CCc2ccccc21` [amitriptyline], in [5], the “appetite increase reported, share of patients” value is recorded as 6% and the “weight gain of greater than or equal to 7% of body weight reported, share of patients” value is reported as 5.9%.
On to `CNCC[C@H](Oc1cccc2ccccc12)c1cccs1` [duloxetine, (+)-(S)—N-methyl-3-(1-naphthyloxy)-3-(thiophen-2-yl)-propan-1-amine], for which the “side effects of the drug alone” value in the data set with normal, health subjects [1] was “causes insomnia, nausea/vomiting, and weight loss”; in the data set with normal, health subjects [3], “causes insomnia, nausea/vomiting, and weight loss”; with normal, health subjects [6] it was “causes insomnia, nausea/vomiting, and weight loss”; in the data set with normal, health subjects [4], “causes insomnia, nausea/vomiting, and weight loss”.
Regarding `CN1CCN2c3ncccc3Cc3ccccc3C2C1` (stereo not drawn) [mirtazapine, 1,2,3,4,10,14b-hexahydro-2-methylpyrazino [2,1-a]pyrido[2,3-c]benzazepine], the “side effects of the drug alone” value in the data set on normal, health subjects [1] was “does cause weight gain, sedation, and cognitive deficits”; in the data set with normal, health subjects [3], “does cause weight gain, sedation, and cognitive deficits”; in the data set with normal, health subjects [6] it was “does cause weight gain, sedation, and cognitive deficits”; with normal, health subjects [4] it was “does cause weight gain, sedation, and cognitive deficits”. Moreover, in data set [7], the “efficacy in chronic tension type headache” value is “suggested efficacy in chronic tension type headache”. Moreover, the depression levels result in [8] was “significant improvements were obtained in depression levels”. Besides, the pain intensity entry in data set [8] is listed as “pain intensity was not statistically improved”. The “activity in fibromyalgia pain” value in data set [9] is on record as “has some activity in fibromyalgia pain”.
